Assay results published in ChEMBL document CHEMBL4038351, “Structure-Guided Development of Covalent and Mutant-Selective Pyrazolopyrimidines to Target T790M Drug Resistance in Epidermal Growth Factor Receptor” (J Med Chem, 2017).
≈ marks a conversion by molar mass, not a printed value. Calls of active or inactive are those of the source. The rule behind the calls is not given here.

What was measured:
[1] = target: Epidermal growth factor receptor (Homo sapiens, UniProt P00533)
[2] = Metabolic stability in mouse plasma at 5 uM incubated for 1 hr by LC-MS method; type: ADME, cell-free; conditions: read-out: Stability
[3] = in vitro; conditions: human, liver microsomes
[4] = Fraction unbound in mouse 100% plasma at 5 uM incubated for 6 hrs by LC-MS method; type: ADME, cell-free
[5] = target: Epidermal growth factor receptor (Homo sapiens, UniProt P00533, L858R)
[6] = Permeability of the compound at 500 uM incubated for 20 hrs by PAMPA; type: physicochemical
[7] = Apparent permeability across basolateral to apical side in human Caco2 cells at 5 uM incubated for 2 hrs; type: ADME, cell-based, Caco-2; conditions: Caco-2
[8] = test system: HCC827; experiment: cells; type: functional, cell-based; conditions: Homo sapiens;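 also: antiproliferative effect on HCC827 cells carrying EGFR delE746_A750 mutation, 96 h exposure, viability read by CellTiter-Glo luminescence on day 5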
Description: Antiproliferative activity against human HCC827 cells harboring EGFR-delE746_A750 mutant incubated for 96 hrs measured on day 5 by CellTiterGlo assay

[9] = test system: Epidermal growth factor receptor (Homo sapiens), P00533 [L858R,T790M]; experiment: Covalent binding affinity to human recombinant GST-tagged EGFR L858R/T790M double mutant expressed in baculovirus expression system by mass spectrometry
[10] = Kinetic solubility in Hepes buffer at 500 uM at pH 7.4 after 90 mins; type: physicochemical; conditions: read-out: Kinetic_solubility
[11] = Apparent permeability across apical to basolateral side in human Caco2 cells at 5 uM incubated for 2 hrs; type: ADME, cell-based, Caco-2; conditions: Caco-2
[12] = test system: NCI-H1975; experiment: cells; type: functional, cell-based; conditions: Homo sapiens
[13] = test system: A-431; experiment: cells; type: ADME, cell-based; conditions: Homo sapiens;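 also: antiproliferative effect on cells bearing wild-type EGFR, 96 h exposure, viability read by CellTiter-Glo luminescence on day 5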
Description: Antiproliferative activity against human A431 cells expressing wild type EGFR incubated for 96 hrs measured on day 5 by CellTiterGlo assay

[14] = target: Epidermal growth factor receptor (Homo sapiens, UniProt P00533, L858R/T790M)
[15] = test system: A549; experiment: cells; type: ADME, cell-based; conditions: Homo sapiens;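 also: antiproliferative effect in KRAS G12S mutant A549 cells after 96 h exposure, viability read by CellTiter-Glo luminescence on day 5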
Description: Antiproliferative activity against human A549 cells harboring KRAS-G12S mutant incubated for 96 hrs measured on day 5 by CellTiterGlo assay

[16] = Metabolic stability in human plasma at 5 uM incubated for 1 hr by LC-MS method; type: ADME, cell-free; conditions: read-out: Stability
[17] = in vitro; conditions: mouse, liver microsomes
[18] = in vitro; conditions: human, Caco-2
Description: Efflux ratio of apparent permeability from basolateral side to apical side over apical side to basolateral side over in human Caco2 cells at 5 uM incubated for 2 hrs

[19] = Ratio of free Cmax in RjOrl:SWISS (CD1) mouse plasma at 20 mg/kg, ip to EC50 for antiproliferative activity against human NCI-H1975 cells harboring EGFR-L858R/T790M double mutant
[20] = AUC in RjOrl:SWISS (CD1) mouse plasma at 2 mg/kg, iv; type: ADME, organism-based
[21] = Oral bioavailability in RjOrl:SWISS (CD1) mouse plasma at 20 mg/kg administered via gavage; type: ADME, organism-based
[22] = AUC in RjOrl:SWISS (CD1) mouse plasma at 20 mg/kg, ip; type: ADME, organism-based
[23] = Half life in RjOrl:SWISS (CD1) mouse plasma at 20 mg/kg, ip; type: ADME, organism-based
[24] = Volume of distribution at steady state in RjOrl:SWISS (CD1) mouse plasma at 2 mg/kg, iv; type: ADME, organism-based; conditions: read-out: Vdss
[25] = test system: Mus musculus; experiment: Toxicity in RjOrl:SWISS (CD1) mouse at 20 mg/kg, po administered via gavage; type: organism-based; conditions: in vivo
[26] = Initial concentration in RjOrl:SWISS (CD1) mouse plasma at 2 mg/kg, iv; type: ADME, organism-based
[27] = AUC in RjOrl:SWISS (CD1) mouse plasma at 20 mg/kg, po administered via gavage; type: ADME, organism-based
[28] = test system: Mus musculus; experiment: Time duration during which free plasma concentration stays above in vitro EC50 for human NCI-H1975 cells harboring EGFR-L858R/T790M double mutant in RjOrl:SWISS (CD1) mouse at 20 mg/kg, ip
[29] = Cmax in RjOrl:SWISS (CD1) mouse plasma at 20 mg/kg, po administered via gavage; type: ADME, organism-based; set-up: dose 20 mg/kg, route oral
[30] = test system: Mus musculus; experiment: Toxicity in RjOrl:SWISS (CD1) mouse at 2 mg/kg, iv; type: organism-based; conditions: in vivo
[31] = Clearance in RjOrl:SWISS (CD1) mouse plasma at 2 mg/kg, iv; type: ADME, organism-based
[32] = Half life in RjOrl:SWISS (CD1) mouse plasma at 2 mg/kg, iv; type: ADME, organism-based
[33] = test system: Mus musculus; experiment: Time duration during which total plasma concentration stays above in vitro EC50 for human NCI-H1975 cells harboring EGFR-L858R/T790M double mutant in RjOrl:SWISS (CD1) mouse at 20 mg/kg, ip
[34] = test system: Mus musculus; experiment: Bioavailability in RjOrl:SWISS (CD1) mouse plasma at 20 mg/kg, ip; type: ADME, organism-based; conditions: in vivo
[35] = test system: Mus musculus; experiment: Free Cmax in RjOrl:SWISS (CD1) mouse plasma at 20 mg/kg, ip; type: ADME, organism-based; conditions: in vivo
[36] = Half life in RjOrl:SWISS (CD1) mouse plasma at 20 mg/kg, po administered via gavage; type: ADME, organism-based
[37] = Ratio of total Cmax in RjOrl:SWISS (CD1) mouse plasma at 20 mg/kg, ip to EC50 for antiproliferative activity against human NCI-H1975 cells harboring EGFR-L858R/T790M double mutant
[38] = Total Cmax in RjOrl:SWISS (CD1) mouse plasma at 20 mg/kg, ip; type: ADME, organism-based; set-up: dose 20 mg/kg, route intraperitoneal
[39] = test system: Mus musculus; experiment: Toxicity in RjOrl:SWISS (CD1) mouse at 20 mg/kg, ip; type: organism-based; conditions: in vivo

`C=CC(=O)N1CCC[C@@H](n2nc(-c3ccc4ccccc4c3)c3c(N)ncnc32)C1` gave an IC50 [1] of 20 nM, a remaining at 1 h, 5 µM [2] of 86% and a microsomal CLint at 50 min, 3 µM [3] of 770 µL/min/mg. For the same compound, the fraction unbound at 6 h, 5 µM [4] was 0.02, the IC50 [5] was 1 nM and the permeability [6] was 73%. The Papp B→A at 2 h, 5 µM [7] was 0.13 ×10⁻⁶ cm/s, the EC50 [8] was < 14 nM and the Activity [9] was “Active”. The solubility kinetic at 1.5 h, 500 µM [10] was 248 µM (≈ 98.8 µg/mL), the Papp A→B at 2 h, 5 µM [11] was 0.51 ×10⁻⁶ cm/s and the EC50 [12] was 140 nM. For the same compound, the EC50 [13] was 3600 nM, the IC50 [14] was < 1 nM and the EC50 [15] was 11600 nM. The remaining at 1 h, 5 µM [16] was 94%, the microsomal CLint at 50 min, 3 µM [17] was 2310 µL/min/mg and the efflux ratio at 2 h, 5 µM [18] was 0.3.
Compound `C=CC(=O)N1CCC[C@@H](n2nc(-c3cn(C)c4ccccc34)c3c(N)ncnc32)C1` has a Ratio [19] of 6, an IC50 [1] of 40 nM and an AUC [20] of 121 ng·h/mL. For the same compound, the remaining at 1 h, 5 µM [2] was 100%, the microsomal CLint at 50 min, 3 µM [3] was 462 µL/min/mg and the fraction unbound at 6 h, 5 µM [4] was 0.12. For the same compound, the bioavailability [21] was 2.4%, the IC50 [5] was 2 nM and the AUC [22] was 1890 ng·h/mL. For the same compound, the half-life [23] was 14.4 min, the permeability [6] was 66% and the Papp B→A at 2 h, 5 µM [7] was 0.29 ×10⁻⁶ cm/s. The EC50 [8] was 90 nM, the Activity [9] was “Active” and the solubility kinetic at 1.5 h, 500 µM [10] was 364 µM (≈ 146 µg/mL). The Vd [24] was 12.4 L/kg, the Activity [25] was “Non-Toxic” and the Papp A→B at 2 h, 5 µM [11] was 0.3 ×10⁻⁶ cm/s. The EC50 [12] was 230 nM, the C0 [26] was 138 ng/mL and the EC50 [13] was 6780 nM. The AUC [27] was 29 ng·h/mL, the IC50 [14] was 3 nM and the Time [28] was 30 min. The EC50 [15] was 23300 nM, the Cmax [29] was 38 ng/mL and the Activity [30] was “Non-Toxic”. For the same compound, the remaining at 1 h, 5 µM [16] was 95%, the clearance [31] was 277 mL/min/kg and the microsomal CLint at 50 min, 3 µM [17] was 1980 µL/min/mg. It also gave a half-life [32] of 36 min, a Time [33] of 75 min and an F [34] of 156%. It also gave a fCmax [35] of 1.36 µM, a half-life [36] of 35.4 min and a Ratio [37] of 50. For the same compound, the Cmax [38] was 4540 ng/mL, the efflux ratio at 2 h, 5 µM [18] was 1 and the Activity [39] was “Non-Toxic”.
